Values of other authors, collected in publication PMC11949389 (Polish Journal of Microbiology, 2025).
In brackets after ≈: the same amount, converted by molar mass. Where two headings read alike, the source gives them in different places.

Legend:
Candida auris [1] = conditions: ref Shaban et al. 2020
Candida albicans [2] = conditions: ref Shaban et al. 2020
Candida albicans [3] = conditions: Candida albicans; ref Sharifzadeh et al. 2019; Iraji et al. 2020; Shaban et al. 2020; Stringaro et al. 2022; Biernasiuk et al. 2022
Candida auris [4] = conditions: Candida auris; ref Shaban et al. 2020
Klebsiella pneumoniae = conditions: ref Sayout et al. 2020, de Souza et al. 2021, Kwiatkowski et al. 2022
Enterobacter cloacae = conditions: ref Sayout et al. 2020
Escherichia coli = conditions: Escherichia coli; ref Owen et al. 2019; Sayout et al. 2020; Noumi et al. 2023
Candida dubliniensis = conditions: ref Iraji et al. 2020
Candida parapsilosis = conditions: ref Iraji et al. 2020, Biernasiuk et al. 2022
Candida krusei = conditions: Candida krusei; ref Sharifzadeh et al. 2019; Iraji et al. 2020; Biernasiuk et al. 2022; Stringaro et al. 2022
Candida glabrata = conditions: Candida glabrata; ref Sharifzadeh et al. 2019; Iraji et al. 2020; Biernasiuk et al. 2022; Stringaro et al. 2022
Candida tropicalis = conditions: Candida tropicalis; ref Iraji et al. 2020; Stringaro et al. 2022
[5] = system: Vibrio anguillarum, and Vibrio harveyi; conditions: ref Rossi et al. (2021)
Staphylococcus aureus [6] = conditions: for tetracycline MIC: S. aureus, ref Sousa Silveira et al. (2020); for MIC/Sensitivity: Staphylococcus aureus, ref Kwiatkowski et al. 2020, Sayout et al. 2020, Sousa Silveira et al. 2020, Macêdo et al. 2022, Noumi et al. 2023, Sharma et al. 2023
Staphylococcus aureus [7] = conditions: ref Mastoor et al. 2022
Acinetobacter baumannii = conditions: ref Sayout et al. 2020
Klebsiella oxytoca = conditions: ref Sayout et al. 2020
Pseudomonas aeruginosa = conditions: Pseudomonas aeruginosa; ref Owen et al. 2019; Sim et al. 2019; Noumi et al. 2023
Salmonella spp. = conditions: ref Sayout et al. 2020
Enterobacter aerogenes = conditions: ref Sayout et al. 2020

| Compound | MIC/Sensitivity (Candida albicans [3]) | MIC/Sensitivity (Klebsiella pneumoniae) | MIC/Sensitivity (Enterobacter cloacae) | MIC/Sensitivity (Candida dubliniensis) | MIC/Sensitivity (Candida parapsilosis) | MIC/Sensitivity (Candida krusei) | MIC/Sensitivity (Candida glabrata) | MIC/Sensitivity (Candida tropicalis) | other results |
| --- | --- | --- | --- | --- | --- | --- | --- | --- | --- |
| CC(C)[C@]12CC(=O)[C@H](C)[C@H]1C2 [Thujone] | 459.7346 to 7355.7536 mg/mL | – | – | 919.4692 to 7355.7536 mg/mL | 3677.8768 to 14711.5072 mg/mL | 919.4692 to 7355.7536 mg/mL | 1838.9384 to 14711.5072 mg/mL | 919.4692 to 7355.7536 mg/mL | – |
| CC1CCC(C(C)C)C(O)C1 (stereo not shown) [menthol] | – | – | – | – | – | – | – | – | activity at the tested concentrations [5]: no activity |
| CN(C)[C@@H]1C(O)=C(C(N)=O)C(=O)[C@@]2(O)C(O)=C3C(=O)c4c(O)cccc4[C@@](C)(O)[C@H]3C[C@@H]12 [tetracycline, reference compound] | – | – | – | – | – | – | – | – | tetracycline MIC (Staphylococcus aureus [6]; before combination): 0.114 mg/mL; tetracycline MIC (Staphylococcus aureus [6]; combined with thymol): 0.101 mg/mL |
| O=CC(Br)=Cc1ccccc1 [α-Bromo-trans-cinnamaldehyde] | – | – | – | – | – | – | – | – | Mechanisms of action (Staphylococcus aureus [7]): • Gene expression reduction linked to intracellular adhesion |
| CC1=CCC(C(C)C)=CC1 [γ-Terpinene] | – | 0.00488 mg/mL (≈ 0.0358 mM) | 0.0065 mg/mL (≈ 0.0477 mM) | – | – | – | – | – | MIC/Sensitivity (Klebsiella oxytoca): 0.00488 mg/mL (≈ 0.0358 mM); MIC/Sensitivity (Salmonella spp.): 0.0065 mg/mL (≈ 0.0477 mM); MIC/Sensitivity (Campylobacter jejuni; Campylobacter jejuni, ref Šimunović et al. 2020): 1 mg/mL (≈ 7.34 mM); MIC (Campylobacter jejuni; ref Šimunović et al. (2020)): 1,000 μg/ml; MIC/Sensitivity (Enterobacter aerogenes): 0.00488 mg/mL (≈ 0.0358 mM); MIC/Sensitivity (Acinetobacter baumannii): 0.00488 mg/mL (≈ 0.0358 mM) |
| (+)-α-Pinene | 51.7674 to 1716.498 mg/mL | – | – | 103.5348 to 1716.498 mg/mL | 51.7674 to 429.1245 mg/mL | 51.7674 to 858.249 mg/mL | 51.7674 to 1716.498 mg/mL | 429.1245 to 1716.498 mg/mL | – |

Continued, in another order:

| MIC/Sensitivity (Candida albicans [3]) | MIC/Sensitivity (Klebsiella pneumoniae) | MIC/Sensitivity (Enterobacter cloacae) | MIC/Sensitivity (Candida dubliniensis) | MIC/Sensitivity (Candida parapsilosis) | MIC/Sensitivity (Candida krusei) | MIC/Sensitivity (Candida glabrata) | MIC/Sensitivity (Candida tropicalis) | Compound | other results |
| --- | --- | --- | --- | --- | --- | --- | --- | --- | --- |
| 1.25 mg/mL (≈ 7.01 mM) | – | – | – | – | – | – | – | C=CCc1ccc(OC)c(OC)c1 [Methyl eugenol] | Mechanisms of action (Candida auris [1]): • Reduced proteinase production and host cell adherence; Mechanisms of action (Candida albicans [2]): • Reduced proteinase production; MIC/Sensitivity (Candida auris [4]): 1.25 mg/mL (≈ 7.01 mM) |
| – | 0.0155 mg/mL (≈ 0.114 mM) | 0.00775 mg/mL (≈ 0.0569 mM) | – | – | – | – | – | C=CC(=C)CCC=C(C)C [Myrcene] | MIC/Sensitivity (Escherichia coli): 0.00194 mg/mL (≈ 0.0142 mM) |
| – | 0.02375 mg/mL (≈ 0.174 mM) | 0.01188 mg/mL (≈ 0.0872 mM) | – | – | – | – | – | CC1=CCC2CC1C2(C)C (stereo not drawn) [α-Pinene] | MIC/Sensitivity (Staphylococcus aureus [6]): 0.01188 mg/mL (≈ 0.0872 mM); MIC/Sensitivity (Escherichia coli): 0.01188 mg/mL (≈ 0.0872 mM); activity at the tested concentrations [5]: no activity; MIC/Sensitivity (Acinetobacter baumannii): 0.01188 mg/mL (≈ 0.0872 mM) |
| 213.8811 to 13731.984 mg/mL | 0.01013 mg/mL (≈ 0.0744 mM) | 0.00506 mg/mL (≈ 0.0371 mM) | 103.5348 to 6865.992 mg/mL | 213.8811 to 431.8491 mg/mL | 103.5348 to 429.1245 mg/mL | 103.5348 to 1716.498 mg/mL | 103.5348 to 3432.996 mg/mL | C=C1CCC2CC1C2(C)C (stereo not drawn) [β-Pinene] | MIC/Sensitivity (Staphylococcus aureus [6]): 0.01013 mg/mL (≈ 0.0744 mM); MIC/Sensitivity (Klebsiella oxytoca): 0.0135 mg/mL (≈ 0.0991 mM); MIC/Sensitivity (Escherichia coli): 0.00506 mg/mL (≈ 0.0371 mM); MIC/Sensitivity (Pseudomonas aeruginosa): 0.01013 mg/mL (≈ 0.0744 mM); MIC/Sensitivity (Salmonella spp.): 0.0081 mg/mL (≈ 0.0595 mM); MIC/Sensitivity (Enterobacter aerogenes): 0.02025 mg/mL (≈ 0.149 mM); MIC/Sensitivity (Acinetobacter baumannii): 0.0135 mg/mL (≈ 0.0991 mM) |
| 8.1738 to 13731.984 mg/mL | – | – | 12.2607 to 1716.498 mg/mL | 50.4051 to 213.8811 mg/mL | 8.1738 to 429.1245 mg/mL | 50.4051 to 3432.996 mg/mL | 213.8811 to 1716.498 mg/mL | (–)-Limonene | – |
